Measured values: the supplement of paper PMC10307832

Columns and labels:
Test in all cases: relative viability (nuclei count vs DMSO), 5 days (fraction); higher = more cells survive
BMX-IN-1 + Pictilisib = compound: C=CC(=O)Nc1cc(-n2c(=O)ccc3cnc4ccc(-c5ccc(NS(C)(=O)=O)cc5)cc4c32)ccc1C [BMX-IN-1] + CS(=O)(=O)N1CCN(Cc2cc3nc(-c4cccc5[nH]ncc45)nc(N4CCOCC4)c3s2)CC1 [Pictilisib] (partner 1 µM)
Method in brief: (§1)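 After 5 days of treatment, lung cancer cells in 1536-well plates were fixed and stained in a single step (final 0.05% Triton X-100, 1% formaldehyde, 1 ug/ml Hoechst) and their nuclei counted on 4× images. Treatment had been applied by pin tool the day after seeding as one drug alone or as a fixed anchor-drug dose with five library-drug doses (not always all listed) in √10 steps. Relative viability is the nuclei count of treated wells divided by that of vehicle wells, and values are medians of duplicate plates.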

BMX-IN-1 + Linsitinib = compound: C=CC(=O)Nc1cc(-n2c(=O)ccc3cnc4ccc(-c5ccc(NS(C)(=O)=O)cc5)cc4c32)ccc1C [BMX-IN-1] + C[C@]1(O)C[C@@H](c2nc(-c3ccc4ccc(-c5ccccc5)nc4c3)c3c(N)nccn32)C1 [Linsitinib] (partner 1 µM)
Method in brief: as §1

PAC-1 + Palbociclib = compound: C=CCc1cccc(/C=N/NC(=O)CN2CCN(Cc3ccccc3)CC2)c1O [PAC-1] + CC(=O)c1c(C)c2cnc(Nc3ccc(N4CCNCC4)cn3)nc2n(C2CCCC2)c1=O [Palbociclib] (partner 0.5 µM)
Method in brief: as §1

PAC-1 + Pemetrexed = compound: C=CCc1cccc(/C=N/NC(=O)CN2CCN(Cc3ccccc3)CC2)c1O [PAC-1] + Nc1nc2[nH]cc(CCc3ccc(C(=O)N[C@@H](CCC(=O)O)C(=O)O)cc3)c2c(=O)[nH]1 [Pemetrexed] (partner 0.2 µM)
Method in brief: as §1

| Cell Line | relative viability (BMX-IN-1 + Pictilisib; first compound 0.02 µM) | relative viability (BMX-IN-1 + Pictilisib; first compound 0.2 µM) | relative viability (BMX-IN-1 + Pictilisib; first compound 0.6325 µM) | relative viability (BMX-IN-1 + Pictilisib; first compound 2 µM) | relative viability (BMX-IN-1 + Linsitinib; first compound 0.02 µM) | relative viability (BMX-IN-1 + Linsitinib; first compound 0.2 µM) | relative viability (BMX-IN-1 + Linsitinib; first compound 0.6325 µM) | relative viability (BMX-IN-1 + Linsitinib; first compound 2 µM) | relative viability (PAC-1 + Palbociclib; first compound 0.02 µM) | relative viability (PAC-1 + Palbociclib; first compound 0.06325 µM) | relative viability (PAC-1 + Palbociclib; first compound 0.2 µM) | relative viability (PAC-1 + Palbociclib; first compound 2 µM) | relative viability (PAC-1 + Pemetrexed; first compound 0.02 µM) | relative viability (PAC-1 + Pemetrexed; first compound 0.06325 µM) | relative viability (PAC-1 + Pemetrexed; first compound 0.2 µM) | relative viability (PAC-1 + Pemetrexed; first compound 2 µM) |
| --- | --- | --- | --- | --- | --- | --- | --- | --- | --- | --- | --- | --- | --- | --- | --- | --- |
| SK-LU-1 | 0.579 | 0.567 | 0.675 | 0.481 | 1.3 | 1.15 | 1.21 | 1.09 | 0.391 | 0.41 | 0.394 | 0.369 | 0.944 | 1.02 | 0.915 | 0.99 |
| PC-3 [JPC-3] | 0.812 | 0.839 | 0.756 | 0.788 | 0.962 | 0.978 | 1.03 | 0.988 | 0.567 | 0.502 | 0.535 | 0.514 | 1.09 | 1.32 | 1.25 | 1.09 |
| ChaGo-K-1 | 0.66 | 0.64 | 0.858 | 0.614 | – | – | – | – | 0.914 | 0.933 | 0.956 | 0.954 | 0.256 | 0.252 | 0.258 | 0.265 |
| NCI-H3122 | 0.689 | 0.632 | 0.571 | 0.675 | 1.04 | 1.08 | 1.01 | 1.02 | 0.188 | 0.179 | 0.198 | 0.214 | 0.196 | 0.199 | 0.201 | 0.207 |
| NCI-H1703 | 0.248 | 0.265 | 0.248 | 0.225 | 0.945 | 0.666 | 0.712 | 0.746 | – | – | – | – | – | – | – | – |
| NCI-H2126 | 0.473 | 0.481 | 0.568 | 0.51 | 0.74 | 0.659 | 0.747 | 0.678 | 0.335 | 0.369 | 0.38 | 0.341 | 0.679 | 0.722 | 0.755 | 0.654 |
| NCI-H1993 | 0.836 | 0.95 | – | 0.821 | 0.68 | 0.721 | – | 0.636 | 0.647 | 0.656 | 0.757 | 0.646 | 0.636 | 0.565 | 0.59 | 0.589 |
| NCI-H1793 | 0.306 | 0.309 | 0.365 | 0.279 | 1.33 | 0.987 | 1.24 | 0.844 | 0.307 | 0.324 | 0.271 | 0.302 | 0.811 | 0.952 | 0.835 | 0.837 |
| NCI-H441 | 0.461 | 0.618 | 0.491 | 0.606 | 0.594 | 0.705 | 0.499 | 0.696 | 0.194 | 0.266 | 0.26 | 0.2 | 0.296 | 0.254 | 0.28 | 0.237 |
| H3255 | 0.437 | 0.461 | 0.592 | 0.488 | 1.07 | 1.01 | 0.965 | 0.912 | 0.359 | 0.298 | 0.299 | 0.291 | 0.601 | 0.521 | 0.495 | 0.596 |
| NCI-H2087 | 0.876 | 0.662 | 0.954 | 1.15 | 1.14 | 1.11 | 1.34 | 1.1 | 0.241 | 0.241 | 0.285 | 0.214 | 0.675 | 0.641 | 0.663 | 0.724 |
